# From US20250197382A1, “KIF18A INHIBITOR” (WIGEN BIOMEDICINE TECHNOLOGY (SHANGHAI) CO., LTD., priority 2022, published 2025)
# pIC50: −log10 of the molar value.
# Target: Recombinant human KIF18A (1-467His-tagged) protein (Homo sapiens (Human), UniProt Q8NI77)
# Test: KIF18A enzyme assay (microtubule-stimulated ATPase activity, ADP-Glo)
# Assay type: biochemical
# Conditions: 30 nM KIF18A, ATP 75 μM, read-out: inhibitory activity against KIF18A IC50
# Method in brief: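 Baculovirus-expressed human KIF18A (1-467, His-tagged; 30 nM) preincubated 15 min at room temperature with compound (22-point 2-fold series) in pH 7.5 Tris buffer containing 30 μg/mL pig microtubules and 1 μM paclitaxel.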
# Chain of Recombinant human KIF18A (1-467His-tagged) protein (Q8NI77 1-467): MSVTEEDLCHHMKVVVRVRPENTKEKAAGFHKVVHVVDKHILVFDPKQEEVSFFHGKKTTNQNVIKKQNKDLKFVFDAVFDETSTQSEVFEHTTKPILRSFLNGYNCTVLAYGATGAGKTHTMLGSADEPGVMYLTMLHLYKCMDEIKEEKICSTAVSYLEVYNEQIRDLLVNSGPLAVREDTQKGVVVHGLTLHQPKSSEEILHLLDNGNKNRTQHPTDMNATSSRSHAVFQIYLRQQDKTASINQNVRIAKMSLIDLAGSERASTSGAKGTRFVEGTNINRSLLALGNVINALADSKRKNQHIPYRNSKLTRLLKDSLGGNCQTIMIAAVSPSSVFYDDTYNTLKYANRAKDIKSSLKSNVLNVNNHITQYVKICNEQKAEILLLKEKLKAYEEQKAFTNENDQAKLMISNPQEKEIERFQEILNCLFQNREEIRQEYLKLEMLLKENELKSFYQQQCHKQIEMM
# Chain of Recombinant human KIF18A (1-467His-tagged) protein (P02550 whole entry partner): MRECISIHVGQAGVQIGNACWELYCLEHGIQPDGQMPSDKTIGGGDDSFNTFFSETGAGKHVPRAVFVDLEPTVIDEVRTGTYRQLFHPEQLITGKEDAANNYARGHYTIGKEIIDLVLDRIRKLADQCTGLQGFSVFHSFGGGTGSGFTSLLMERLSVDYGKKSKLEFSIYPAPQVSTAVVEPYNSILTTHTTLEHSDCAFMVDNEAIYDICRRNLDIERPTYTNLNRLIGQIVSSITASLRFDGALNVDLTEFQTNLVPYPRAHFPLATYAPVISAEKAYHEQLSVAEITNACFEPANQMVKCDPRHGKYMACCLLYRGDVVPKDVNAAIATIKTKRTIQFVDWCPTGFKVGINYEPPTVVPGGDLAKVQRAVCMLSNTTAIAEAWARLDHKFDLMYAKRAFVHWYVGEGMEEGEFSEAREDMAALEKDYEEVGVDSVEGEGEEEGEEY
# Chain of Recombinant human KIF18A (1-467His-tagged) protein (P02554 whole entry partner): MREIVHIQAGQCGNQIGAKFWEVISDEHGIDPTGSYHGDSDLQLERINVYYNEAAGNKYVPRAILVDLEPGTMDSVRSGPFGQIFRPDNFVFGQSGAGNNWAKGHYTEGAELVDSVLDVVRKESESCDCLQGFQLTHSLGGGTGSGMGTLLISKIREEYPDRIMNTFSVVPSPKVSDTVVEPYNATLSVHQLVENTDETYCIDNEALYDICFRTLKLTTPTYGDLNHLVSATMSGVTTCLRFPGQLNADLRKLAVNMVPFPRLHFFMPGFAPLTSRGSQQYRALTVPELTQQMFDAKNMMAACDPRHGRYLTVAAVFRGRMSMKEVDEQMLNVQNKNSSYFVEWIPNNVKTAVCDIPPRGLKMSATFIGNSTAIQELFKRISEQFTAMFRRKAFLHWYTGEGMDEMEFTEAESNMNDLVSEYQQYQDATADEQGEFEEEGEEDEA
row,SMILES,pIC50
1,C[C@@H](CO)S(=O)(=O)Nc1ccc(NC(=O)c2cc3ccn(C)c3c(N3CCC(F)(F)CC3)n2)c(N2CCC3(CC2)CC3)c1 [Compound 493],≥ 7.00
2,CN1CCc2cc(NC(=O)c3ccc(NS(=O)(=O)CCO)cc3N3CCC4(CC3)CC4)cc(N3CC4CC4C3)c21 (stereo not shown) [Compound 266],≥ 7.00
3,C[C@H]1CN(c2nc(NC(=O)c3ccc(S(=O)(=O)NCCO)cc3N3CCC4(CC3)CC4)cc3ccn(C)c23)CCO1 [Compound 467],≥ 7.00
4,C[C@@H](CO)S(=O)(=O)Nc1ccc(NC(=O)c2cc3c(c(N4CCC(F)(F)CC4)n2)OCC3)c(N2CCC3(CC2)CC3)c1 [Compound 109],≥ 7.00
5,CN1CCc2cc(C(=O)Nc3ccc(S(=O)(=O)NCCO)cc3N3CCC4(CC3)CC4)nc(N3CCOCC3)c21 [Compound 380],≥ 7.00
6,C[C@@H]1CN(c2nc(C(=O)Nc3ccc(S(=O)(=O)NCCO)cc3N3CCC4(CC3)CC4)cc3c2N(C)CC3)CCO1 [Compound 370],≥ 7.00
7,CN1CCc2cc(C(=O)Nc3ccc(NS(=O)(=O)CCO)cc3N3CCC4(CC3)CC4)cc(NC(C)(C)CO)c21 [Compound 299],≥ 7.00
8,O=C(Nc1ccc(NS(=O)(=O)CCO)cc1N1CCC2(CC1)CC2)c1cc2c(c(N3CCC4(CC4)C3)c1)OCC2 [Compound 38],≥ 7.00
9,O=C(Nc1ccc(S(=O)(=O)NCCO)cc1N1CCC2(CC1)CC2)c1cc2ccoc2c(N2CCOCC2)n1 [Compound 252],≥ 7.00
10,CN1CCc2cc(NC(=O)c3ccc(S(=O)(=O)NCCO)cc3N3CCC4(CC3)CC4)nc(N3CC(F)(F)C3)c21 [Compound 340],≥ 7.00
11,O=C(Nc1cc2ccoc2c(N2CC(F)(F)C2)n1)c1ccc(S(=O)(=O)NCCO)cc1N1CCC2(CC1)CC2 [Compound 212],≥ 7.00
12,C[C@H](CO)S(=O)(=O)Nc1ccc(NC(=O)c2cc3c(c(N4CCC(F)(F)CC4)c2)N(C)CC3)c(N2CCC3(CC2)CC3)c1 [Compound 302],≥ 7.00
13,Cn1ccc2cc(NC(=O)c3ccc(S(=O)(=O)NCCO)cc3N3CCC4(CC3)CC4)cc(NC(C)(C)CO)c21 [Compound 411],≥ 7.00
14,O=C(Nc1cc2c(c(N3CCOCC3)c1)OCC2)c1ccc(NS(=O)(=O)CCO)cc1N1CCC2(CC1)CC2 [Compound 12],≥ 7.00
15,C[C@H](CO)NS(=O)(=O)c1ccc(NC(=O)c2cc3c(c(N4CCC(F)(F)CC4)n2)N(C)CC3)c(N2CCC3(CC2)CC3)c1 [Compound 382],≥ 7.00
16,C[C@H]1CN(c2nc(C(=O)Nc3ccc(NS(=O)(=O)CCO)cc3N3CCC4(CC3)CC4)cc3c2OCC3)CCO1 [Compound 99],≥ 7.00
17,CN1CCc2cc(C(=O)Nc3ccc(NS(=O)(=O)CCO)cc3N3CCC4(CC3)CC4)cc(N3CCC(F)CC3)c21 [Compound 297],≥ 7.00
18,CN1CCc2cc(NC(=O)c3ccc(NS(=O)(=O)CCO)cc3N3CCC4(CC3)CC4)nc(N3CCC4(CC4)C3)c21 [Compound 326],≥ 7.00
19,CN1CCc2cc(C(=O)Nc3ccc(S(=O)(=O)NCCO)cc3N3CCC4(CC3)CC4)cc(N3CCC(C)(F)C3)c21 (stereo not shown) [Compound 312],≥ 7.00
20,O=C(Nc1ccc(NS(=O)(=O)CCO)cc1N1CCC2(CC1)CC2)c1cc(N2CCOCC2)c2occc2c1 [Compound 172],≥ 7.00
21,C[C@H](CO)S(=O)(=O)Nc1ccc(NC(=O)c2cc3c(c(N4CCC(F)(F)CC4)n2)N(C)CC3)c(N2CCC3(CC2)CC3)c1 [Compound 366],≥ 7.00
22,O=C(Nc1cc2c(c(N3CCOCC3)n1)OCC2)c1ccc(NS(=O)(=O)CCO)cc1N1CCC2(CC1)CC2 [Compound 76],≥ 7.00
23,CN1CCc2cc(C(=O)Nc3ccc(NS(=O)(=O)CCO)cc3N3CCC4(CC3)CC4)cc(N3CCC4(CC4)C3)c21 [Compound 294],≥ 7.00
24,C[C@@H]1CN(c2nc(NC(=O)c3ccc(S(=O)(=O)NCCO)cc3N3CCC4(CC3)CC4)cc3ccn(C)c23)CCO1 [Compound 466],≥ 7.00
25,C[C@@H]1CN(c2cc(C(=O)Nc3ccc(S(=O)(=O)NCCO)cc3N3CCC4(CC3)CC4)cc3ccn(C)c23)CCO1 [Compound 434],≥ 7.00
26,C[C@@H](CO)NS(=O)(=O)c1ccc(NC(=O)c2cc3c(c(N4CCC(F)(F)CC4)n2)OCC3)c(N2CCC3(CC2)CC3)c1 [Compound 125],≥ 7.00
27,Cn1ccc2cc(C(=O)Nc3ccc(S(=O)(=O)NCCO)cc3N3CCC4(CC3)CC4)cc(N3CCC(F)CC3)c21 [Compound 441],≥ 7.00
28,CC(C)(CO)Nc1nc(NC(=O)c2ccc(S(=O)(=O)NCCO)cc2N2CCC3(CC2)CC3)cc2ccoc12 [Compound 219],≥ 7.00

# The next lines start with the values.
row,pIC50,SMILES
1,≥ 7.00,O=C(Nc1cc2ccoc2c(OC2CCC2)n1)c1ccc(S(=O)(=O)NCCO)cc1N1CCC2(CC1)CC2 [Compound 215]
2,≥ 7.00,C[C@@H]1CN(c2nc(C(=O)Nc3ccc(S(=O)(=O)N[C@@H](C)CO)cc3N3CCC4(CC3)CC4)cc3ccoc23)CCO1 [Compound 255]
3,≥ 7.00,O=C(Nc1ccc(S(=O)(=O)NCCO)cc1N1CCC2(CC1)CC2)c1cc2c(c(N3CCOCC3)c1)OCC2 [Compound 60]
4,≥ 7.00,C[C@@H]1CN(c2cc(C(=O)Nc3ccc(NS(=O)(=O)[C@H](C)CO)cc3N3CCC4(CC3)CC4)cc3c2OCC3)CCO1 [Compound 48]
5,≥ 7.00,Cn1cnc2cc(NC(=O)c3ccc(NS(=O)(=O)CCO)cc3N3CCC4(CC3)CC4)cc(N3CCC(F)(F)CC3)c21 [Compound 528]
6,≥ 7.00,C[C@@H]1CN(c2nc(C(=O)Nc3ccc(S(=O)(=O)NCCO)cc3N3CCC4(CC3)CC4)cc3c2OCC3)CCO1 [Compound 114]
7,≥ 7.00,CN1CCc2cc(NC(=O)c3ccc(S(=O)(=O)NCCO)cc3N3CCC4(CC3)CC4)cc(OC3CCC3)c21 [Compound 279]
8,≥ 7.00,CN1CCc2cc(C(=O)Nc3ccc(S(=O)(=O)NCCO)cc3N3CCC4(CC3)CC4)nc(OCCC(F)(F)F)c21 [Compound 373]
9,≥ 7.00,Cn1ccc2cc(NC(=O)c3ccc(S(=O)(=O)NCCO)cc3N3CCC4(CC3)CC4)cc(N3CCC(F)(F)CC3)c21 [Compound 401]
10,≥ 7.00,C[C@@H]1CN(c2nc(NC(=O)c3ccc(S(=O)(=O)NCCO)cc3N3CCC4(CC3)CC4)cc3c2N(C)CC3)CCO1 [Compound 338]
11,≥ 7.00,CN1CCc2cc(NC(=O)c3ccc(NS(=O)(=O)CCO)cc3N3CCC4(CC3)CC4)cc(OCCC(F)(F)F)c21 [Compound 261]
12,≥ 7.00,C[C@H]1CN(c2nc(NC(=O)c3ccc(S(=O)(=O)NCCO)cc3N3CCC4(CC3)CC4)cc3c2OCC3)CCO1 [Compound 83]
13,≥ 7.00,C[C@H](CO)S(=O)(=O)Nc1ccc(NC(=O)c2cc3c(c(N4CCC(F)(F)CC4)n2)OCC3)c(N2CCC3(CC2)CC3)c1 [Compound 110]
14,≥ 7.00,C[C@@H](CO)NS(=O)(=O)c1ccc(NC(=O)c2cc(N3CCC(F)(F)CC3)c3occc3c2)c(N2CCC3(CC2)CC3)c1 [Compound 189]
15,≥ 7.00,O=C(Nc1ccc(S(=O)(=O)NCCO)cc1N1CCC2(CC1)CC2)c1cc2ccoc2c(N2CC(F)(F)C2)n1 [Compound 244]
16,≥ 7.00,C[C@@H](CO)S(=O)(=O)Nc1ccc(C(=O)Nc2cc(N3CCC(F)(F)CC3)c3occc3c2)c(N2CCC3(CC2)CC3)c1 [Compound 141]
17,≥ 7.00,Cn1ccc2cc(C(=O)Nc3ccc(S(=O)(=O)NCCO)cc3N3CCC4(CC3)CC4)nc(NC(C)(C)CO)c21 [Compound 507]
18,≥ 7.00,Cn1ccc2cc(C(=O)Nc3ccc(S(=O)(=O)NCCO)cc3N3CCC4(CC3)CC4)cc(N3CCC(C)(F)C3)c21 (stereo not shown) [Compound 440]
